Measurements: PubChem BioAssay (NCI)
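Compound exposure: 48 hours, 5 concentrations, 96-well plates. Here, GI50 denotes the concentration required for 50% inhibition of growth. The concentration for full growth arrest is given as TGI.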

Legend:
Assay in all cases: DTP human tumour cell line panel, 48 h
SW-620 colon = system: SW-620 colon
SNB-19 CNS = system: SNB-19 CNS
CCRF-CEM leukemia = system: CCRF-CEM leukemia
NCI-H460 lung = system: NCI-H460 lung
SF-268 CNS = system: SF-268 CNS
A549 NSCLC = system: A549 NSCLC
MCF7 breast = system: MCF7 breast
HL-60(TB) leukemia = system: HL-60(TB) leukemia
UACC-257 melanoma = system: UACC-257 melanoma
DU-145 prostate = system: DU-145 prostate

Row | SMILES | GI50 (SW-620 colon) | TGI (SW-620 colon) | GI50 (SNB-19 CNS) | TGI (SNB-19 CNS) | GI50 (CCRF-CEM leukemia) | TGI (CCRF-CEM leukemia) | GI50 (NCI-H460 lung) | TGI (NCI-H460 lung) | GI50 (SF-268 CNS) | TGI (SF-268 CNS) | GI50 (A549 NSCLC) | TGI (A549 NSCLC) | GI50 (MCF7 breast) | TGI (MCF7 breast) | GI50 (HL-60(TB) leukemia) | TGI (HL-60(TB) leukemia) | GI50 (UACC-257 melanoma) | TGI (UACC-257 melanoma) | GI50 (DU-145 prostate) | TGI (DU-145 prostate)
1 | COc1ccc([C@H]2c3cc(OC)c(OC)cc3C=C(C=O)C2CO)cc1OC (stereo not given in full) | 3.49 µM | > 100 µM | 8.56 µM | > 100 µM | 19 µM | > 100 µM | 3.51 µM | > 100 µM | 4.74 µM | > 100 µM | 52.5 µM | > 100 µM | 3.73 µM | > 100 µM | 3.65 µM | > 100 µM | > 100 µM | > 100 µM | 3.51 µM | 21.8 µM
2 | COc1ccc(C(=O)CC2(O)C(=O)Nc3c(Cl)ccc(Cl)c32)cc1 (stereo not given) | 0.503 µM | > 100 µM | 4.68 µM | > 100 µM | 2.03 µM | > 26.3 µM | 0.97 µM | 40.4 µM | 5.95 µM | > 61.1 µM | 1.55 µM | > 100 µM | 0.64 µM | > 100 µM | 0.384 µM | 3.51 µM | 15.5 µM | > 100 µM | 3.44 µM | > 37.6 µM
3 | Cc1cc(Cl)n2c(nc3ccccc32)c1C#N | 0.055 µM | 1.79 µM | 2.44 µM | 15.6 µM | 0.0485 µM |  | 0.6 µM | 8.9 µM | 0.46 µM | 11.4 µM | 0.385 µM | 7.43 µM | 0.158 µM | 2.3 µM | 0.241 µM | 1.09 µM | 0.727 µM | 4.8 µM | 0.339 µM | 1.2 µM
4 | Cc1ccc(CCC(=O)Nc2ncc(Cc3cc(Cl)ccc3Cl)s2)o1 | 0.0694 µM | > 100 µM | 0.33 µM | 5.45 µM | 0.197 µM | > 100 µM | 0.233 µM |  | 1.59 µM | > 54.6 µM | 0.376 µM | > 58.8 µM | 0.0439 µM | > 100 µM | 0.193 µM | 0.589 µM | 13.4 µM | > 100 µM | 0.351 µM | > 32.9 µM
5 | Cn1cc(-c2ccc3cc(-c4ccc(CC(=O)Nc5cc(C(C)(C)C)nn5C)cc4)cnc3c2)cn1 | 0.324 µM | > 100 µM | 0.473 µM | > 100 µM | 0.375 µM | > 100 µM | 0.165 µM | > 100 µM | 0.294 µM | > 100 µM | 0.336 µM | > 100 µM | 0.496 µM | > 100 µM | 0.314 µM |  | 0.425 µM | > 100 µM | 0.17 µM | > 100 µM
6 | CC(=O)O[C@@H]1C=CC(=O)C2(CC(=O)O[C@@H]2/C=C(\C)CCC=C(C)C)C1 (stereo not given in full) | 0.436 µM |  | 1.6 µM | 3.58 µM | 0.163 µM | 0.543 µM | 0.378 µM | 2.2 µM | 1.05 µM | 2.31 µM | 2.04 µM | 4.91 µM | 0.0772 µM | 0.599 µM | 0.184 µM | 0.557 µM | 1.03 µM | 2.6 µM | 0.633 µM | 2.38 µM
7 | CC(=O)NC1(C)CCC(C(C)(C)NC(C)=O)CC1 (stereo not given) |  | > 100 µM |  | > 100 µM |  | > 100 µM |  | > 100 µM |  | > 100 µM |  | > 100 µM |  | > 100 µM |  | > 100 µM |  | > 100 µM |  | > 100 µM
8 | [O-][n+]1onc2c3nn(-c4ccccc4)nc3ccc21 |  | > 100 µM |  | > 100 µM |  | > 100 µM |  | > 100 µM |  | > 100 µM |  | > 100 µM |  | > 100 µM |  | 8.68 µM |  | > 92.2 µM |  | 57.8 µM
9 | Cc1c2c(n3c(nc4ccccc43)c1C#N)SCC2 |  | > 10 µM |  | > 10 µM |  | > 10 µM |  | > 10 µM |  | > 10 µM |  | > 10 µM |  | > 10 µM |  | > 10 µM |  | > 10 µM |  | > 10 µM
10 | O=C(Cn1ccnc1[N+](=O)[O-])NCCO |  | > 100 µM |  | > 100 µM |  | > 100 µM |  | > 100 µM |  | > 100 µM |  | > 100 µM |  | > 100 µM |  | > 100 µM |  | > 100 µM |  | > 100 µM
11 | FC(F)(F)c1ccc2nc(-c3nc(-c4ccccc4)n4ccccc34)[nH]c2c1 | 3.17 µM | 23.6 µM | 6.44 µM | 20.8 µM | 5.64 µM | > 100 µM | 2.93 µM | 11.2 µM | 5.63 µM | > 100 µM | 3.12 µM | 11.1 µM | 2.4 µM | 21 µM | 27.8 µM | > 100 µM | 13.1 µM | 46.2 µM | 7.5 µM | 30.3 µM
12 | O=C1CCCC1C(=O)Nc1ccc2ccccc2c1 (stereo not given) |  | > 100 µM |  | > 100 µM |  | > 100 µM |  | > 100 µM |  | > 100 µM |  | > 100 µM |  | > 100 µM |  | > 100 µM |  | > 100 µM |  | > 100 µM
13 | CC(C)(O)Cn1c(=O)c(Oc2ccc(F)cc2F)cc2cnc(NC3CCOCC3)nc21 | > 25 µM | > 25 µM | > 25 µM | > 25 µM | > 25 µM | > 25 µM | > 25 µM | > 25 µM | > 25 µM | > 25 µM | > 25 µM | > 25 µM | > 25 µM | > 25 µM | > 25 µM | > 25 µM | > 25 µM | > 25 µM | > 25 µM | > 25 µM
14 | O=C(Nc1nc2ncn(CCOC(=O)c3ccccc3)c2c(=O)[nH]1)c1ccccc1 |  | > 100 µM |  | > 100 µM |  | > 100 µM |  | > 100 µM |  | > 100 µM |  | > 100 µM |  | > 100 µM |  | > 24.6 µM |  | > 100 µM |  | > 100 µM
15 | COc1cc(-c2cc(-c3ccc(N(C)C)cc3)nc(N3CCC(O)CC3)c2C#N)cc(OC)c1OC | 0.448 µM | > 35.6 µM | 2.44 µM | 23.8 µM | 0.598 µM | > 100 µM | 0.249 µM | 1.9 µM | 1.22 µM | 5.31 µM | 0.378 µM |  | 0.626 µM | 3.42 µM | 0.574 µM | 4.13 µM | 0.3 µM | 0.969 µM | 0.853 µM | > 79.6 µM
16 | CCc1cc(C(N)=O)ccc1-n1nc(C(C)C)c2c(-n3cnc(-c4cnn(C)c4)c3)ccnc21 | 0.536 µM | > 100 µM | 3.3 µM | > 100 µM | 0.752 µM | > 100 µM | 0.566 µM | > 100 µM | 8.76 µM | > 100 µM | 2.18 µM | > 100 µM | 0.443 µM | > 100 µM | 1.14 µM | > 100 µM | 2.9 µM | > 100 µM | 0.604 µM | > 100 µM
17 | CC(C)Oc1cc(OCC(=O)O)cc(C(=O)N(CCC(N)=O)C(=O)Nc2ccc(C(=O)O)cc2OC(C)C)c1 | > 100 µM | > 100 µM | > 100 µM | > 100 µM | > 100 µM | > 100 µM | > 100 µM | > 100 µM | > 100 µM | > 100 µM | > 100 µM | > 100 µM | > 100 µM | > 100 µM | > 100 µM | > 100 µM | > 100 µM | > 100 µM | > 100 µM | > 100 µM
18 | COc1ccc(/C=C2/SC(=Nc3c(C)nn(-c4ccccc4)c3N)NC2=O)cc1 | 3.31 µM | 13.9 µM | 7.68 µM | > 100 µM | 2.14 µM | 20.8 µM | 3.04 µM | 10.7 µM | 4.84 µM | 35.7 µM | 2.74 µM | 24 µM | 3.08 µM | 31.5 µM | 2.9 µM | 10.7 µM | 6.63 µM | 65.6 µM | 3.73 µM | 23.1 µM
19 | C1=C[C@@H]2c3ccc4cnccc4c3NC[C@@H]2C1 |  | > 100 µM |  | > 100 µM |  | > 100 µM |  | > 100 µM |  | > 100 µM |  | > 100 µM |  | > 100 µM |  | > 100 µM |  | > 100 µM |  | > 100 µM
20 | CCN1CCC(C(=O)Nc2n[nH]c3nnc(-c4cccc(F)c4F)cc23)CC1 | 10.4 µM | > 25 µM | 12 µM | > 25 µM | 6.75 µM | > 25 µM | 7.96 µM | > 25 µM | 9.08 µM | > 25 µM | 10.5 µM | > 25 µM | 2.2 µM | > 12.8 µM | 8.16 µM | 19.5 µM | 11.9 µM | > 25 µM | 10.3 µM | 24.6 µM
